Source: US10258599B2, “Compounds for use in the prevention or treatment of cancer” (SEMMELWEIS UNIVERSITY, priority 2014, dated 2019)
“Also recorded” adds a separate entry of the source.

How the values were obtained:
[1] = test system: mouse lung adenocarcinoma tumors; experiment: Mouse lung adenocarcinoma xenograft model in Balb/c nude mice; type: in vivo
Procedure: Mouse primary lung adenocarcinoma tumors maintained subcutaneously were utilized in the present study. Tumors with sizes of 3 mm in diameter were implanted subcutaneously in a total of 18 FVB/N female mice with a bodyweight of 25 g. From the day after tumor inoculation, 6-6 animals started receiving (−)-BPAP daily as a subcutaneous injection at a concentration of either 0.0001 mg/kg (low dose) or 0.05 mg/kg (high dose). Tumor sizes were measured twice a week using a digital caliper. Tumor volumes were calculated by the following formula: […]
Statistical analyses were made by Graphpad Prism 4.03 software. Significances of changes between control and (−)-BPAP-treated groups were assessed by using Mann-Whitney U-test. Significance was declared at the standard p<0.05 level.
Next, the same experiment was repeated using 18 Balb/c nude mice to explore whether the adaptive immune system plays a role in the tumor suppressor action of (−)-BPAP.

[2] = test system: catecholaminergic neurons; experiment: Shuttle box: antagonism of tetrabenazine-induced learning deficit (conditioned avoidance reflex); type: in vivo, rat
Procedure: In a modified version of the shuttle box the acquisition of a two-way conditioned avoidance reflex (CAR) was analyzed during 5 consecutive days. The rat was put in a box divided inside into two parts by a barrier with a small gate in the middle, and the animal was trained to cross the barrier under the influence of a conditioned stimulus (CS, light flash). […] One trial consisted of 10 s intertrial interval, followed by 20 s CS. The last 5 s of CS overlaped the 5 s US. At each learning session, the number of CARs, EFs and intersignal reactions (IRs) are automatically counted and evaluated by multi-way ANOVA.
Tetrabenazine-treatment (1 mg/kg s.c.) depletes at least 90% of norepinephrine and dopamine from their stores in the nerve terminals of the catecholaminergic neurons in the brain stem. Due to the weak performance of the catecholaminergic brain engine, the activation of the cortical neurons remains below the level required for the acquisition of a CAR. The learning deficit caused by tetrabenazine-treatment can be antagonized by the administration of a synthetic CAE substance or an A-type MAO inhibitor, whereas selective inhibition of B-type MAO or inhibition of the reuptake of catecholamines and/or serotonin is ineffective (Knoll et al., 1992).

[3] = test system: isolated locus coerulei of rats; details: Knoll et al., 1999, Miklya, Knoll B, 2002; cited from earlier work
[4] = test system: male Wistar rats (Charles River); experiment: Longevity study: survival of rats treated 3 times a week s.c.; type: in vivo, rat
Procedure: Experiments were carried out on male Wistar rats (Charles River) weighing 250-350 g received from the breeding colony of Semmelweis University. The animals were kept in a 12-hour light-dark cycle and under condition of controlled temperature (22±2° C.) and relative humidity (55±5%). Room temperature and relative humidity was checked daily. The rats were maintained on standard laboratory chow and tap water ad libitum. All procedures conformed to the European Convention for the protection of vertebrate animals used for experimental and other scientific purposes. The study was approved by the Animal Ethics Committee of Semmelweis University, Budapest (permission number: 1810/003/2004)
(§1) The longevity study was performed on 200 male rats received from the breeding colony of the Semmelweis University. The rats were born at the end of February of 2010. After 2-month acclimation period the rats were divided randomly into 5 even groups. The longevity study started at the beginning of May 2010. Animals were observed until their natural deaths. The data in this study represent the changes observed until Oct. 31, 2012, since in the saline-treated group the last animal died on Oct. 31, 2012. As will be shown later a few rats in the enhancer-treated groups were still alive on Nov. 1, 2012.
(§2) During the longevity study 5 rats were housed together in polycarbonate cages (height: 18 cm; wide: 42 cm; length: 44 cm) with a stainless steel on the top. Cage bedding was renewed 3 times a week (Monday, Wednesday and Friday). Bodyweight was measured once every month. The treatment started at the end of the second month of their age.
To avoid the mixing of the groups and individuals, saline-treated rats were signed blue from 1 to 40; D-treated rats were signed green from 1 to 80 (1-40: rats treated with 0.1 mg/kg and 41-80: rats treated with 0.001 mg/kg); B-treated rats were signed black from 1 to 80 (1-40: rats treated with 0.05 mg/kg and 41-80: rats treated with 0.0001 mg/kg).
(§3) Significance in the performance between the groups in the shuttle box was evaluated by multi-factor analysis of variance (ANOVA). Significance regarding the span of time from tumor manifestation until death in rats and regarding aging related changes in bodyweight treated chronically with the enhancer substances was analyzed by One-way ANOVA. Statistical analysis of survival rate and tumor manifestation was performed by the Kaplan-Meier method.

isolated rat brain stem = details: optimal concentration for the specific enhancer effect, 3-min collection period; review Knoll, 2005; cited from earlier work
fibromyxosarcoma = experiment: Longevity study: manifestation of subcutaneous fibromyxosarcoma (TMS effect); type: in vivo, rat; details: for tumor manifestation suppressing (TMS) effect versus saline: Kaplan-Meier, P<0.001
Procedure: as §1, §2
We carefully observed the appearance of the subcutaneous tumor and followed the development of the tumor until death. Histological analysis was performed post mortem on several rats taken from each group as examples.
The subcutaneous tumors developed in the rats were measured by the two largest diameters. After sacrificing the animals, the tumors were removed, photographs were taken. Tissues were fixed immediately after removal in 10% neutral formalin (in PBS, pH7.0) for 24 hours at room temperature, dehydrated and embedded in paraffin. 3-4 micrometer thick sections were cut and stained by hematoxylin and eosin (HE) as a routine.
as §3

[5] = shuttle box, 1 mg/kg tetrabenazine s.c.
[6] = 0.0001 mg/kg, N=40, listed as BPAP

CCCN[C@H](CCC)Cc1cc2ccccc2o1 [(−)-BPAP, (2R)-1-(1-benzofuran-2-yl)-N-propylpentane-2-amine]
tumor size versus control ([1]; high dose 0.05 mg/kg s.c. daily): did not cause significant changes in tumor size
tumor growth (tumor volume) versus control ([1]; low dose 0.0001 mg/kg s.c. daily): significant inhibition of tumor growth
effect on tetrabenazine-induced learning deficit ([2]; 0.0001 mg/kg (FIG. 4)): antagonizing the tetrabenazine-induced learning deficit
dose with the non-specific enhancer effect selected for the longevity study [2, 5]: 50 µg/kg
optimal dose that exerted the specific enhancer effect [2, 5]: 0.1 µg/kg
very high dose range effective in antagonizing the tetrabenazine-induced learning deficit (MAO-A inhibition) [2, 5]: 2000 to 10000 µg/kg
concentration range of the specific enhancer effect on noradrenergic neurons [3]: femto/picomolar
lifespan compared with saline-treated peers ([4]; 0.0001 mg/kg 3 times a week, P<0.05): lived significantly longer
month of age in which the first animal died ([4]; 0.0001 mg/kg s.c. 3 times a week, N=40): 16 month
rats remained alive to the end of the 32nd month [4, 6]: one and One
month of age in which the first animal died ([4]; 0.05 mg/kg s.c. 3 times a week, N=40): 14 month
lifespan compared with saline-treated peers ([4]; both doses of the longevity study (FIGS. 5-8)): significantly longer
released amount of labeled transmitter ([3H]-norepinephrine, [3H]-dopamine or [3H]-serotonin) (isolated rat brain stem): significantly higher
tumor manifestation suppressing (TMS) effect versus saline (fibromyxosarcoma; 0.0001 mg/kg): significantly decreased; also recorded: more potent in suppressing tumor manifestation than 0.1 mg/kg (−)-deprenyl
tumor manifestation suppressing (TMS) effect versus saline (fibromyxosarcoma; 0.0001 mg/kg, listed as BPAP): highly efficient; also recorded: suppressed the manifestation of the fibromyxosarcoma significantly
month of age in which the first animal manifested the tumor (fibromyxosarcoma; 0.0001 mg/kg, N=40): 20 month
rats in the group manifested the tumor to the end of the 32nd month (fibromyxosarcoma; 0.0001 mg/kg, N=40): 8 rats
rats manifested the fibromyxosarcoma when the group completed the 30th month of life (fibromyxosarcoma; 0.0001 mg/kg, N=40): 8 rats
month of age in which the first animal manifested the tumor (fibromyxosarcoma; [6]): 25 month
tumor manifestation suppressing (TMS) effect versus saline (fibromyxosarcoma; 0.05 mg/kg): significantly decreased
tumor manifestation suppressing (TMS) effect versus saline (fibromyxosarcoma; 0.05 mg/kg, listed as BPAP): suppressed the manifestation of the fibromyxosarcoma significantly
month of age in which the first animal manifested the tumor (fibromyxosarcoma; 0.05 mg/kg, N=40): 13 month
rats in the group manifested the tumor to the end of the 32nd month (fibromyxosarcoma; 0.05 mg/kg, N=40): 7 rats
rats manifested the tumor when the group completed the 30th month of life (fibromyxosarcoma; 0.05 mg/kg, N=40): 7 rats
span of time from tumor manifestation until death (fibromyxosarcoma; chronic treatment, versus saline (FIG. 13), One-way ANOVA): no significant difference
